Data taken from patent publication US20200237742A1, “Serdexmethylphenidate Conjugates, Compositions And Methods Of Use Thereof” (priority 2018, published 2020).
Counter-ions that a name gives are not always drawn.

How the values were obtained:
[1] = system: recreational stimulant abusers; assay: Intravenous abuse potential study, VAS pharmacodynamic assessments; type: in vivo, human
Source text: “Drug liking” score, used herein, is the score used to assess the degree that a human participant likes a drug effect at the time the question is being asked (that is, at the moment). It is scored using a 0 to 100 point bipolar visual analogue scale (VAS) anchored in the center with a neutral anchor of “neither like nor dislike” (score of 50), on the left with “strong disliking” (score of 0) and on the right with “strong liking” (score of 100).
“Euphoria” or “Feeling High” score, used herein, is the term to describe the score used to assess the degree that a human participant is high at the time the question is being asked (that is, at the moment). It is scored using a 0 to 100 point unipolar visual analogue scale (VAS) anchored on the left with “Not at All” (score of 0) and on the right with “Extremely” (score of 100).
“Take Drug Again” score, used herein, is the term to describe the score used to assess the degree that a human participant wants to take the drug again, if given the opportunity, based on his/her opinion now, i.e., at the time the question is being asked. It is scored using a 0 to 100 point unipolar visual analogue scale (VAS) anchored on the left with “Definitely Would Not” (score of 0) and on the right with “Definitely Would” (score of 100).
“Overall Drug Liking” score, used herein, is the term to describe the score used to assess the human subject's global perception of drug liking (i.e., the subjective effects over the whole course of the drug experience including any carryover effects). Subjects respond to the statement “Overall, my liking for this drug is.” The question is scored using a 0-100 point bipolar VAS anchored on the left with “Strong Disliking” (score of 0); “Neither Like nor Dislike” (score of 50) in the middle, and anchored on the right with “Strong Liking” (score of 100). This scale has the advantage of the human subject being relatively less affected or unaffected by acute study drug effects (if any) by the time of the assessment.
“Good Effects” score, used herein, is the term to describe the score used to assess the degree that a human participant is feeling good drug effects at the time the question is being asked (that is, at the moment). Subjects respond to the statement “At this moment, I can feel good drug effects.” It is scored using a 0 to 100 point unipolar visual analogue scale (VAS) anchored on the left with “Not at All” (score of 0) and on the right with “Extremely” (score of 100).
Safety assessments were performed throughout the study.

[2] = system: recreational stimulant abusers; assay: Intravenous study, treatment-emergent adverse events; details: SDX Cl 30 mg (N = 31), d-MPH HCl 15 mg (N = 30)
Experimental: A study was conducted in humans to assess the intravenous abuse potential of serdexmethylphenidate relative to unconjugated d-methylphenidate and placebo in recreational stimulant abusers. This was a Phase 1, randomized, double-blind study in which serdexmethylphenidate and d-methylphenidate were administered intravenously in recreational stimulant users with a history of non-oral abuse. In Part A of the study, subjects (Cohort 1) participated in a dose-escalation phase to determine the optimal dose of intravenous d-methylphenidate based on tolerability and abuse-related pharmacodynamic assessments. […] The doses of serdexmethylphenidate and d-methylphenidate are equivalent with respect to molar amount of d-methylphenidate. FDA-recommended abuse potential measures and blood samples were collected at different times after dosing. Safety assessments were performed throughout the study.

[3] = system: healthy, nondependent, recreational stimulant users with intranasal insufflation experience; assay: Intranasal abuse potential study, VAS pharmacodynamic assessments
Source text: “Ease of Insufflation” VAS is the measure that assesses the difficulty of snorting the study drugs. Subjects will respond to the statement “Snorting this drug was:” The question will be scored using a 0-100 points unipolar VAS anchored on the left with “Very Easy” (score of 0) and anchored on the right with “Very Difficult” (score of 100).
The study consisted of a Screening Period, an in-clinic Drug Discrimination Phase, a Treatment Phase, and a Follow-Up Visit.
Subjects who successfully completed the Screening Period returned to the clinic to complete the Drug Discrimination Phase. […] Subjects who successfully completed the Drug Discrimination Phase remained as inpatients to enter the Treatment Phase. The Drug Discrimination Phase was a double-blind, intranasal, single-dose, 2-treatment, 2-period, 2-sequence, randomized, crossover design.
All subjects were required to fast for at least 8 hours prior to each dose of study drug until approximately 4 hours after each dose. Abuse potential measures and pharmacokinetic samples were collected at different times after the administration of study drug. Subjects who successfully completed the Drug Discrimination Phase and who qualified for the Treatment Phase remained as inpatients to enter the Treatment Phase.
The placebo dose consisted of 80 mg of microcrystalline cellulose to create the same volume.
On dosing days in the Treatment Phase, blood samples were collected for the measurement of the plasma concentrations of SDX, d-methylphenidate (d-MPH), 1-methylphenidate (1-MPH) and ritalinic acid at predose and at 0.25, 0.5, 0.75, 1, 1.5, 2, 3, 4, 5, 6, 7, 8, 9, 10, 12, 16, 24, 36, and 48 hours ±5 minutes after each dose of study drug. […] All VAS pharmacodynamic assessments except Take Drug Again and Overall Drug Liking were performed at 0.25, 0.5, 0.75, 1, 1.5, 2, 3, 4, 5, 6, 7, 8, 10, 12, 24 hours ±5 minutes postdose. In addition, predose assessments of Feeling High, and Drowsiness/Alertness were collected. The Take Drug Again and Overall Drug Liking VAS assessments were performed at 12 and 24 hours ±5 minutes postdose. Ease of Nasal Insufflation scores were completed within 5 minutes after the completion of each intranasal drug administration during the Treatment Phase.

[4] = 12 hours, SDX Cl 30 mg vs placebo
[5] = 12 hours, SDX Cl 30 mg, d-MPH HCl 15 mg
[6] = 24 hours, SDX Cl 30 mg vs placebo
[7] = 24 hours, SDX Cl 30 mg, d-MPH HCl 15 mg
[8] = 12 hours, SDX Cl 80 mg, d-MPH HCl 40 mg
[9] = 24 hours, SDX Cl 80 mg, d-MPH HCl 40 mg
[10] = 12 hours, d-MPH HCl 15 mg vs SDX Cl 30 mg
[11] = 24 hours, d-MPH HCl 15 mg vs SDX Cl 30 mg
[12] = Emax, d-MPH HCl 15 mg vs SDX Cl 30 mg
[13] = d-MPH HCl 15 mg vs SDX Cl 30 mg

SMILES | Median Overall Drug Liking [1, 5] | TEAE: Change in sustained attention [2] | TEAE: Dry mouth [2] | TEAE: Energy increased [2] | TEAE: Euphoric mood [2] | TEAE: Feeling abnormal [2] | TEAE: Feeling hot [2] | TEAE: Feeling jittery [2] | TEAE: Feeling of relaxation [2] | TEAE: Headache [2] | TEAE: Heart rate increased [2] | TEAE: Hyperhidrosis (sweaty hands) [2] | TEAE: Hypervigilance [2] | TEAE: Nausea [2] | TEAE: Palpitations [2] | TEAE: Paraesthesia (tingling) [2] | TEAE: Sinus tachycardia [2] | TEAE: Somnolence [2] | TEAE: Tachycardia [2] | Median Overall Drug Liking [3, 8] | further results
COC(=O)[C@H](c1ccccc1)[C@H]1CCCCN1C(=O)OC[n+]1cccc(C(=O)N[C@@H](CO)C(=O)O)c1.[Cl-] [serdexmethylphenidate chloride] | 50.0 | 0 (0.0) n (%) | 0 (0.0) n (%) | 2 (6.5) n (%) | 4 (12.9) n (%) | 1 (3.2) n (%) | 2 (6.5) n (%) | 0 (0.0) n (%) | 0 (0.0) n (%) | 1 (3.2) n (%) | 0 (0.0) n (%) | 1 (3.2) n (%) | 4 (12.9) n (%) | 0 (0.0) n (%) | 0 (0.0) n (%) | 0 (0.0) n (%) | 0 (0.0) n (%) | 1 (3.2) n (%) | 0 (0.0) n (%) | 58 | Mean Difference Take Drug Again, A vs C [1, 4]: 9.1; Overall Drug Liking, Mean difference A vs C [1, 4]: 2.8; Median Take Drug Again [1, 5]: 0.0; Mean Difference Take Drug Again, A vs C [1, 6]: 1.4; Overall Drug Liking, Mean difference A vs C [1, 6]: 1.2; Median Overall Drug Liking [1, 7]: 50.0; Median Take Drug Again [1, 7]: 0.0; Mean Difference Take Drug Again, A vs C ([1]; Emax, SDX Cl 30 mg vs placebo): 6.0; Overall Drug Liking, Mean difference A vs C ([1]; Emax, SDX Cl 30 mg vs placebo): 1.4; Feeling High Emax, Mean difference A vs C ([1]; SDX Cl 30 mg vs placebo): 3.4; Good Effects Emax, Mean difference A vs C ([1]; SDX Cl 30 mg vs placebo): 2.2; Median Difference Drug Liking Emax, A vs C ([1]; SDX Cl 30 mg vs placebo, bipolar VAS): 0.5; Median Take Drug Again [3, 8]: 51; Mean Overall Drug Liking [3, 9]: 59.0; Median Overall Drug Liking [3, 9]: 55; Median Take Drug Again [3, 9]: 50
COC(=O)[C@H](c1ccccc1)[C@H]1CCCCN1 [d-methylphenidate hydrochloride, d-threo-methylphenidate hydrochloride] | 73.0 | 2 (6.7) n (%) | 6 (20.0) n (%) | 1 (3.3) n (%) | 17 (56.7) n (%) | 2 (6.7) n (%) | 6 (20.0) n (%) | 2 (6.7) n (%) | 1 (3.3) n (%) | 1 (3.3) n (%) | 5 (16.7) n (%) | 4 (13.3) n (%) | 10 (33.3) n (%) | 3 (10.0) n (%) | 2 (6.7) n (%) | 2 (6.7) n (%) | 4 (13.3) n (%) | 4 (13.3) n (%) | 4 (13.3) n (%) | 87 | Mean Overall Drug Liking [1, 5]: 68.0; Mean Difference Take Drug Again, B vs A [1, 10]: 43.3; Overall Drug Liking, Median difference B vs A [1, 10]: 16.0; Mean Difference Take Drug Again, B vs A [1, 11]: 39.2; Overall Drug Liking, Median difference B vs A [1, 11]: 13.5; Mean Difference Take Drug Again, B vs A [1, 12]: 43.1; Overall Drug Liking, Median difference B vs A [1, 12]: 18.0; Feeling High Emax, Median difference B vs A [1, 13]: 67.0; Good Effects Emax, Median difference B vs A [1, 13]: 73.0; Median Difference Drug Liking Emax, B vs A ([1]; d-MPH HCl 15 mg vs SDX Cl 30 mg, bipolar VAS): 29.0; Median Take Drug Again [3, 8]: 91; Median Overall Drug Liking [3, 9]: 82; Median Take Drug Again [3, 9]: 94; Mean Difference Overall Drug Liking, B vs A ([3]; 24 hours, d-MPH HCl 40 mg vs SDX Cl 80 mg): statistically higher
